Results published in PubChem BioAssay (NCI).
“And” between values parts separate entries of the source, which are not always exact repeats. Equal values may be shown once.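 All cell lines were grown in 96-well plates and treated with compound for 48 hours. At the GI50, growth is halved. Definition used: TGI = concentration required for complete inhibition of growth.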

Each compound was assayed on MDA-MB-468 breast (assay: NCI-60 cell line screen, 48 h).

| Structure (SMILES) | GI50 | TGI |
| --- | --- | --- |
| Clc1ccc(COC(Cn2ccnc2)c2ccc(Cl)cc2Cl)cc1 (stereo not given) | 2020 nM | 6810 nM |
| N/C(=N\OC(=O)c1ccccc1)C(C(=O)NOC(=O)c1ccccc1)C1CCCCC1 (stereo not given) | 13300 nM | 29400 nM |
| Cc1cc(N(CCNc2ccnc3cc(Cl)ccc23)Cc2ccc3c(c2)OCO3)nc(N2CCN(C)CC2)n1 | 1870 nM | 4020 nM |
| CC1(C)N=C(N)N=C(N)N1c1ccc(CCc2ccccc2)c(Cl)c1 | 55.5 nM | 1340 nM |
| COc1ccc(-c2cc(-c3ccc(Cl)cc3)c(C#N)c(=O)n2CCCCC(=O)Nc2ccccc2N)cc1 | 5680 nM | 67500 nM |
| C[n+]1cc2c3c(ccc2c2ccc4cc5c(cc4c21)OCO5)OCO3 | 1050 nM | 2480 nM |
| C#Cc1nc(/C=C/C(=O)NO)cs1 | 1110 nM | 4160 nM |
| C#C[C@]1(O)CC[C@H]2[C@@H]3CC=C4c5nc(Nc6ccccn6)sc5CC[C@]4(C)[C@H]3CC[C@@]21C | 1620 nM | 5150 nM |
| N=C(N)c1ccc(-c2ccc(-c3ccc(Cl)cc3Cl)o2)cc1 | 1940 nM | 3680 nM |
| O=C(Nc1ccc(OC(F)(F)F)cc1)c1sccc1NCc1ccnc2ccccc12 | 1520 nM | 19800 nM |
| CNC(=O)Nc1ccc(-c2nc(N3CCOCC3)nc3c2cnn3C2CCOCC2)cc1 | 151 nM | 936 nM |
| COc1cc(-c2csc(NC(=O)c3cc(C(F)(F)F)cc(C(F)(F)F)c3)n2)cc(OC)c1OC | 1640 nM | 7020 nM |
| COc1cc(Nc2ccnc(N3CCN(c4ccnc5cc(Cl)ccc45)CC3)n2)cc(OC)c1 | 832 nM | > 84900 nM |
| CN1CCCN(CCNc2nccc(-c3c(-c4cccc(O)c4)nc4sccn34)n2)S1(=O)=O | 9050 nM and 10700 nM | 24100 nM and 53000 nM |
| CC1=CC(=O)CC(C)(C)[C@@]1(O)/C=C/C(C)=C\C(=O)O | 116 nM | 308 nM |
| CC[C@H](C)[C@H](NC(=O)c1cnccn1)C(=O)N(C)[C@H](C[C@@H](OC(C)=O)c1nc(C(=O)N[C@@H](Cc2ccccc2)C[C@H](C)C(=O)OC)cs1)C(C)C | 595 nM | 29800 nM |
| CCN(c1ccc(CO)c(Cl)c1)C(C)c1ccc(F)cc1 (stereo not given) | 640 nM | 5260 nM |
| COc1ccc(C(=O)N2c3ccccc3Sc3ccccc32)c(F)c1 | 413 nM | > 100000 nM |

| Structure (SMILES) | GI50 | TGI |
| --- | --- | --- |
| Cc1ccc(C(=O)Nc2ccc(CN3CCN(C)CC3)c(C(F)(F)F)c2)cc1C#Cc1cnc(N)c2ccc(F)cc12 | 359 nM | 1190 nM |
| CCOC(=O)c1c(NC(=O)c2ccc(C(C)C)cc2)sc2c(CN(C)C)c(O)ccc12 | 1880 nM | 4090 nM |
| COc1cc(/C=C2\CN(C)CC3=C2Nc2nc(SC)[nH]c(=O)c2C3c2cc(OC)c(OC)c(OC)c2)cc(OC)c1OC (stereo not given) | 2200 nM | 10600 nM |
| Cc1ccc(C(=O)/C(=C/c2ccc([N+](=O)[O-])cc2)S(=O)Cc2ccccc2)cc1 (stereo not given) | 1710 nM | 4070 nM |
| C[C@]12CC[C@@H]3c4ccc(O)c([N+](=O)[O-])c4CC[C@H]3[C@@H]1CC[C@@H]2NS(=O)(=O)c1ccc(C(F)(F)F)cc1 | 2180 nM | 6290 nM |
| S=C(N/N=C/c1cc(Cl)cc(Cl)c1)NC12CC3CC(CC(C3)C1)C2 | 16800 nM | > 100000 nM |
| Cc1cccc(NC(=O)c2sc3nc4c(cc3c2N)CCCC4)c1C | 339 nM | > 100000 nM |
| NS(=O)(=O)c1ccc(N2Cc3cc(Cl)ccc3OC3=C2C(=O)N(CC2CCCCC2)C3=O)cc1 | 962 nM | 2730 nM |
| CS(=O)(=O)c1ccc(Cl)c([N+](=O)[O-])c1 | 1600 nM | 3470 nM |
| Fc1cccc(COc2ccc(Nc3ncnc4sc(-c5ccco5)cc34)cc2Cl)c1 | > 17700 nM | > 25000 nM |
| Cn1cc(C2=C(c3cn(C)c4ccc(N)cc34)C(=O)NC2=O)c2ccccc21 | 7350 nM | > 25000 nM |
| CC(C)n1c(/C=C/[C@@H](O)C[C@@H](O)CC(=O)O)c(-c2ccc(F)cc2)c2ccccc21 | 5720 nM and 2550 nM | > 100000 nM |
| COc1ccc(Cl)cc1Nc1nc(C(F)(F)F)ccc1C(=O)NN | 3880 nM | > 85900 nM |
| CCN(CCCCCCCCCCN1CC(=O)N(CCCCCCCCCCN(CC)Cc2ccccc2OC)CC1=O)Cc1ccccc1OC | 1110 nM | 2500 nM |
| COC(=O)c1ccc2c(c1)C(NC(C)=O)CCc1cc(OC)c(OC)c(OC)c1-2 (stereo not given) | 18.4 nM | > 100000 nM |
| CCNCCCn1c2c(c3cc(OC)c(OC)cc3c1=O)C(=O)c1cc(OC)cnc1-2 | 310 nM | 1440 nM |
| CCN1CCN(Cc2ccc(NC(=O)Nc3ccc(-n4ccc5c(NC(=O)c6ccccc6)nccc54)cc3)cc2C(F)(F)F)CC1 | 1770 nM | 3300 nM |
